# From patent publication EP0627444B1, “Monoacetic derivatives of the peptides leu-phe-ala and ala-leu-phe and their use in identifying and destroying tumour cells, viruses and virus-carrying cells” (priority 1993, dated 1998)
# Where “and” joins values, the source holds several entries; their conditions need not be identical. Identical values can stand only once.
# Key:
# [1] = tested on: NK lymphocytes; assay: Activation test for NK lymphocytes assessed by means of rosette formation; assay type: in vivo, female mice belonging to BALB/C strain; settings: Lot B controls, muramyl dipeptide only
# Protocol: In carrying out such a test, all six isomers of the monoacetic derivative of the peptide were used, individually, both in normoergic (germ free) animals (lot A) and in animals previously immunized with muramyl dipeptide (lot B). The method and results of the test are hereinafter reported.
# A number of groups, each consisting of 18 randomized animals, were inoculated with 0.1 ml/each of normal saline solution (controls) or 0.1 ml/each of monoacetic peptide in its 6 possible isomers dissolved in normal saline solution. The 17.5 mg/kg dose administered to the animals corresponds to 1/20 of the LD found with respect to these peptides.
# Treated and control animals were sacrificed in groups of 6 on the 11th, 13th and 18th day after the inoculation of the normal saline solution or of the peptide. […]
# Cell survival was assessed by means of the supravital staining technique with trypan blue. […]
# FCS, at a 10% ratio, was added to the above mentioned suspension. Following 5 minutes of incubation at +37 °C and 5 minutes of centrifugation at 200 rpm, the samples were incubated at +4 °C for 18 hours prior to reading the results.
# The lymphocytes encircled by 3 or more ram's erythrocytes were considered as rosette-forming lymphocytes. The significance was assessed by means of Student's "T" test. […]
# [2] = tested on: Lewis Lung Carcinoma; assay: Lewis Lung Carcinoma, third set of experiments (with MDP); assay type: in vivo, female mice C57BI/6
# Protocol: The tested compound was Ala-Leu-Phe = P1 (SF080) (17.5 mg/kg) in the model of tumour disease caused by Lewis Lung Carcinoma. The compound was also evaluated in combination with muramyl dipeptide (MDP).
# Animals: female mice C57BI/6 (Charles River) the average weight of which was 20g were used. The experiment involved overall 48 mice.
# The tumour cells of LLC were obtained from the fourth passage of tumour cells. The total number of cells was 2 x 10^5 in 0.1 ml of Hanks solution. The cells were injected subcutaneously into axillary region.
# The peptide P1 was administered i.p. in suspension with propylenglycol (0.1 ml/50 ml) in physiological solution. […] The same way of administration as in tested animals (i.p.) was used.
# The animals were divided into 4 groups each having 12 mice. In groups 2 and 3 MDP was administered subcutaneously in a dose of 100 µg (0.5 ml physiol. solution per mouse). The protocol of the test is as follows.
# The animals in all groups were observed daily for tumour growth. In the control group the tumour growth was so rapid and the animals were in such a condition that the experiment was terminated after 18 days from the administration of tumour cells. Mice were sacrificed and tumour mass was excised and weighed. Both lobes of lungs were inspected for the presence of metastases.
# The following parameters have been evaluated in this experiment: • a) the percentage of animals not having the tumour • b) the average weight of the tumour • c) the percentage of animals with metastases in lungs • d) the average number of metastases in case of positive animals
# Statistical analysis was performed by the method of one factorial analysis of variance (ANOVA), Dunnett's test and chi-square test. […]
# [3] = group 2: MDP 100 µg s.c. day -3, day 18
substance,measurement,setting,value
muramyl dipeptide [MDP],rosette formation after preventive immunization,[1],significant decrement
same,"Weight of tumours, AVG",[2]; [3],3.24 g
same,"Weight of tumours, SUM",[2]; [3],29.16 g
same,"average number of metastases, AVG",[2]; [3],1
same,metastase free animals,[2]; [3],64%
same,"number of metastases, SUM",[2]; [3],9
same,tumour-free animals,[2]; [3],18%
same,number of metastases (meta),"[2]; individual animals, lungs, group 2: MDP 100 µg s.c. day -3, day 18",1 and 3 (2×) and 0 (7×) and 2
same,Weight of tumours,"[2]; individual animals, group 2: MDP 100 µg subcutaneously day -3, 18 days after tumour cells",4.88 g and 4.48 g and 1.97 g and 3.13 g and 0 g (2×) and 3.57 g and 2.72 g and 1.81 g and 4.11 g and 2.49 g
